In PMC10608985, “Retention Behavior of Anticancer Thiosemicarbazides in Biomimetic Chromatographic Systems and In Silico Calculations” (Molecules, 2023):

Assays:
[1] = HPLC lipophilicity on IAM (immobilized artificial membrane, phosphatidylcholine) stationary phase; assay type: physicochemical; conditions: pH 7.4; for Log k IAM: Table S2; for log kw IAM: intercept, linear extrapolation to water; for log kw IAM / -S IAM: ACN/20 mM phosphate buffer; for -S IAM: slope of Soczewiński–Wachtmeister equation
Method: (§1) For the evaluation of the compounds the following stationary phases were used: C-18; biomimetic, IAM; cholesterol (Chol); immobilized proteins HSA and AGP. For the lipophilicity determination, MeOH (C-18, Chol) or ACN (IAM) were applied as the organic modifiers. The measurements were performed at pH 7.4 of the mobile phase. The regular changes in the retention of all solutes used as organic modifier content in the mobile phase on three studied stationary phases were found. It is expressed by the Soczewiński–Wachtmeister Equation (1):log k = log kw + S (% organic modifier)(1) where log kw—the intercept; S—the slope of regression curve. […] Log kw as well as S parameters are commonly applied as lipophilicity descriptors.
(§2) HPLC measurements were performed using a liquid chromatograph Knauer (Knauer, Berlin, Germany) with a dual pump, a 20 µL simple injection valve, and a UV–visible detector. The compounds were detected under UV light at 280 nm at room temperature. The retention time of an unretained solute (t0) was determined by the injection of a small amount of citric acid dissolved in water.
A Rexchrom IAM.PC.DD2 (12 μm, 100 × 4.6 mm, 300 Å) (Regis Technologies, Morton Grove, IL, USA) column was used as the stationary phase. The compounds were dissolved at a concentration of 0.5 mg × mL^−1 in MeOH. The mobile phases consisted of different volume fractions of ACN and 20 mM phosphate buffer; the aqueous phase maintained a pH = 7.4 (0.02 M KH2PO4, Na2HPO4 and 0.15 M KCl). The acetonitrile concentration ranged from 0.05 to 0.4 (v/v), depending on the structure of compound, at 0.05 intervals (Table S2 in the Supplementary Materials). The flow rate was 1 mL × min^−1.

[2] = HPLC lipophilicity on cholesterol (Chol) stationary phase; assay type: physicochemical; conditions: pH 7.4; for Log k Chol: Table S3; for log kw Chol: intercept, linear extrapolation to water; for log kw Chol / -S Chol: MeOH/20 mM acetate buffer; for -S Chol: slope of Soczewiński–Wachtmeister equation
Method: as §1, §2
Cogent 4 UDC Cholesterol (150 × 2.1 mm, 4 µm) MicroSolv Technology Corporation (Leland, NC, USA) column was used. The mobile phase consisted of different volume mixtures of MeOH as the organic modifier and 20 mM acetate buffer as the aqueous phase, to obtain pH = 7.4. The concentrations of the organic modifier were in the range from 0.3 to 0.8 (v/v) with step 0.05 or 0.1 (Table S3 in the Supplementary Materials). The flow rate was 0.35 mL × min^−1.

[3] = molecular target: T1, human serum albumin (HSA) (Homo sapiens, UniProt P02768); test: HPLC on immobilized HSA column, affinity and % plasma–protein binding; assay type: in vitro ADME; conditions: for log K HSA: binding equilibrium constant from calibration curve (Equation 8) of log k HSA; for fraction unbound: human, pH 7.4, % plasma–protein binding converted from log K HSA (Equation 10), read-out: %PPB HSA (converted); for log k HSA: retention on HSA column, 50 mM ammonium acetate pH 7.4 / propan-2-ol 85/15 (v/v)
T1 construct: purchased Chiralpac
T1 sequence (P02768 25-609): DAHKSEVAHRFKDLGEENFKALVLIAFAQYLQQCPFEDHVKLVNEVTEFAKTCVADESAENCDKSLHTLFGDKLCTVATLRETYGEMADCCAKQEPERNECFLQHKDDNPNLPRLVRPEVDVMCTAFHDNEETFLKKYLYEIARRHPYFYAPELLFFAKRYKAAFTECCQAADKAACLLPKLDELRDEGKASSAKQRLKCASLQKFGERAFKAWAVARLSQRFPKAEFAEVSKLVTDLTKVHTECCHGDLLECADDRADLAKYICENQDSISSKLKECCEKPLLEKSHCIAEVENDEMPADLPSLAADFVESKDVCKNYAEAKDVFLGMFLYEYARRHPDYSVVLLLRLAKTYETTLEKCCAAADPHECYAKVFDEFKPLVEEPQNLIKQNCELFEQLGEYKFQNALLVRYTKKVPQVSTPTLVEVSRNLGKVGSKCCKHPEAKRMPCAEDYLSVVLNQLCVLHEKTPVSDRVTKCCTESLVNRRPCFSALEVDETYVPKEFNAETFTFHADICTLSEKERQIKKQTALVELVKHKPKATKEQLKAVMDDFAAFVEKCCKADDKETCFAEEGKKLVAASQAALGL
Method: (§3) Measurements on HSA and AGP immobilized protein columns were carried out with […] isopropanol content in the aqueous mobile phase.
(§4) The standard calibration curve was used to predict log K values (K—binding equilibrium constant) of investigated compounds to HSA and AGP. Next, the log K values were converted into a percentage of plasma–protein binding (%PPB) of the compounds (Table 2). […] It is the lowest for compound 16 with -NO2 substituent, unsubstituted compound 1, and fluorine derivatives 2 and 9. In a group of […] derivatives in the same position of the phenyl ring, the %PPB to AGP increases with the increase in the atomic weight of the halogen atom and the lipophilicity of the molecule.
as §2
(§5) A human serum albumin (HSA) immobilized on the 5 µm silica gel column 100 × 3 mm (Chiralpac) and an α1-acid glycoprotein (AGP) immobilized on the 5 µm silica gel column 100 × 4 mm (Chiralpac) were used. The compounds were dissolved at 0.5 mg/mL concentration in 50% propan-2-ol and ammonium acetate solution (pH = 7.4) mixtures for HSA measurements. The mobile phase was composed of 50 mM ammonium acetate solution (pH = 7.4) and propan-2-ol at 85/15 (v/v) for AGP, respectively. The flow of mobile phases was 0.5 mL×min^−1. Log k values for the selected mobile phase were determined for all studied compounds and standard substances. The % protein plasma binding (% PPB) values were calculated from the calibration curve according to Valko et al..
(§6) Calibration of the protein columns: The column performance check and the calibration check were performed before measurements. The racemic mixture of warfarin was used for their performance evaluation. The following calibration set of drugs was applied: bromazepam, carbamazepine, diclofenac, nicardipine, nizatidine, piroxicam for HSA and bromazepam, chlorpromazine, imipramine, nicardipine, nizatidine, propranolol, and warfarin for AGP. The analytical standards were purchased from Sigma Aldrich Steinhen, Steinheim am Albuch, Germany). The drugs were dissolved at 0.5 mg/mL concentration in 50% propan-2-ol and ammonium acetate solution mixtures (pH = 7.4). The obtained log k values from HPLC were plotted against the log K values (K—binding equilibrium constant, log K—linearized PPB) based on the literature data for plasma–protein binding (%, PPB). The following relationships were obtained: log KHSA = 0.2513 (±0.0984) + 1.0525 (±0.1171) log k HSA(8) n=6, R=0.9761, R^2 = 0.9528, Radj2 = 0.9410, s = 0.1948 log KAGP = 0.1733 (±0.0574) + 0.8902 (±0.0787) log k AGP(9) n=7, R=0.9810, R^2 = 0.9623, Radj2 = 0.9548, s = 0.1113
(§7) Log K values were converted into %PPB using the following equation [15]:(10) %PPB=101×10^logK/1+10^logK

[4] = tested on: α1-acid glycoprotein (AGP); test: HPLC on immobilized AGP column, affinity and % plasma–protein binding; assay type: in vitro ADME, human; conditions: for log K AGP: binding equilibrium constant from calibration curve (Equation 9) of log k AGP; for fraction unbound: human, pH 7.4, % plasma–protein binding converted from log K AGP (Equation 10), read-out: %PPB AGP (converted); for log k AGP: retention on AGP column, 50 mM ammonium acetate pH 7.4 / propan-2-ol 85/15 (v/v)
Method: as §3, §4, §2, §5, §6, §7

[5] = parameters: method as in Kozyra et al. [31]; conditions: MeOH/20 mM acetate buffer, pH 7.4, ref Kozyra et al. [31], cited from earlier work; for log kw C-18: intercept of Soczewiński–Wachtmeister equation (water as mobile phase); for -S C-18: slope of Soczewiński–Wachtmeister equation

SMILES | Log k IAM ([1]; ACN 0.05 v/v in mobile phase) | Log k IAM ([1]; ACN 0.10 v/v in mobile phase) | Log k IAM ([1]; ACN 0.15 v/v in mobile phase) | Log k IAM ([1]; ACN 0.20 v/v in mobile phase) | Log k IAM ([1]; ACN 0.25 v/v in mobile phase) | Log k IAM ([1]; ACN 0.30 v/v in mobile phase) | Log k IAM ([1]; ACN 0.35 v/v in mobile phase) | log kw IAM [1] | -S IAM [1] | Log k Chol ([2]; MeOH 0.30 v/v in mobile phase) | Log k Chol ([2]; MeOH 0.35 v/v in mobile phase) | Log k Chol ([2]; MeOH 0.40 v/v in mobile phase) | Log k Chol ([2]; MeOH 0.50 v/v in mobile phase) | Log k Chol ([2]; MeOH 0.60 v/v in mobile phase) | Log k Chol ([2]; MeOH 0.80 v/v in mobile phase) | log kw Chol [2] | -S Chol [2] | log K HSA [3] | fraction unbound [3] | log k HSA [3] | other results
O=C(COc1ccccc1)NNC(=S)Nc1ccccc1 [Compound 1] | 0.999 | 0.548 | 0.284 | 0.085 | -0.142 | -0.518 | -0.490 | 1.0288 | 4.4559 | 0.979 | 0.857 | 0.620 | 0.110 | -0.157 | -1.006 | 2.2209 | 4.0307 | 1.0986 | 0.065 | 0.8050 | Log k IAM ([1]; ACN 0.40 v/v in mobile phase): -0.556; Log k Chol ([2]; MeOH 0.45 v/v in mobile phase): 0.440; log K AGP [4]: 0.4018; fraction unbound [4]: 0.277; log k AGP [4]: 0.2567; log kw C-18 [5]: 1.7866; -S C-18 [5]: 3.7611
O=C(COc1ccccc1)NNC(=S)Nc1ccccc1F [Compound 2] | 0.968 | 0.692 | 0.455 | 0.234 | -0.010 | -0.358 | -0.461 | 1.1961 | 4.8953 | 0.744 | 0.656 | 0.441 | -0.037 | -0.314 | -1.104 | 1.9241 | 3.7822 | 1.2775 | 0.041 | 0.9750 | log K AGP [4]: 0.3986; fraction unbound [4]: 0.278; log k AGP [4]: 0.2531; log kw C-18 [5]: 2.0774; -S C-18 [5]: 4.3603
